{"source": "patent US11253527B2", "about": "“Method and composition for inhibiting virus infection” (priority 2019, dated 2022)", "key": {"HBV": {"tested_on": "HBV", "assay": "HBV replication, assembly, secretion in HepG2.2.15 cells (HBsAg/HBeAg ELISA, HBV DNA real-time PCR)", "assay_type": "cell-based, Hepatitis B virus", "procedure": "(§1) HepG2.2.15 cells were cultured with different concentrations of Antrodia camphorata fruit body extracts for 48 h, then the culture medium was collected to measure HBV HBsAg by ELISA. HepG2, containing no HBV, was used as a negative control (NC). The results are expressed as a percentage of the non-drug-treated positive control (NT) and are shown as mean±SD for three independent experiments. *, P<0.05; **, P<0.01; ***, P<0.001.\nas §1, with “HBeAg” for “HBsAg”\nas §1, with “DNA” for “HBsAg”, “real-time PCR. Plasmid p1.3HBcl, which contains a 1.3-fold HBV genome (ayw subtype (Galibert et al., 1979)), was used as standard in parallel PCR reactions, while” for “ELISA.”\nContinuous HBV proliferation can be achieved in HepG2.2.15 cells (RRID:CVCL_L855) stably transfected with the HBV genome of the adw2 subtype. HepG2.2.15 cells are used because of the unlimited supply and constant quality and were maintained in Dulbecco's modified Eagle medium (DMEM; Invitrogen) supplemented with 10% heat-inactivated fetal bovine serum (FBS; Thermo) plus 100 units of penicillin and 100 µg of streptomycin per ml (both from Invitrogen).\nThe culture medium from drug-treated HepG2.2.15 cells is clarified by centrifugation at 1,000×g at 4° C. for 10 min, and then the supernatant is layered on top of a 20% sucrose cushion (20% sucrose, 20 mM HEPES, pH 7.4, 0.1% bovine serum albumin [BSA]) and centrifuged at 197,000×g for 3 h at 4° C. to pellet the HBV particles, which are then concentrated 100 fold to detect HBV DNA.\nTotal DNA is extracted with a Genomic DNA isolation kit (Nexttec Biotechnologie, Germany). Total RNA is isolated from cultured cells using TRIzol® reagent (Invitrogen). Reverse transcription is performed with the RNA templates, AMV reverse transcriptase (Roche), and oligo-dT primer. The products are subjected to real-time PCR with primer sets of specific genes and SYBR Green PCR Master Mix (Bio-Rad). The primer sets used for HBV core, HBsAg, cccDNA and GAPDH are described. The results are analyzed with the iCycler iQ real-time PCR detection system (Bio-Rad). Plasmid p1.3HBcl is prepared at 10-fold dilutions (2*10^4-2*10^9 […] to generate a standard curve in parallel PCR reactions.\nTo test whether Antrodia camphorata fruit body extracts had any effect on HBV genome replication, assembly, or secretion, HepG2.2.15 cells, which stably transfected with HBV genome, were used to incubate with four Antrodia camphorata fruit body extracts for 48 hours, then HBsAg, HBeAg and HBV DNA collected from medium were measured by ELISA and real-time PCR."}, "HSV-1 virions": {"tested_on": "HSV-1 virions", "assay": "Direct effect on infectivity of purified HSV-1 virions, plaque assay", "assay_type": "cell-based, Herpes simplex virus type 1", "details": "purified virions incubated directly with drug 1 hour at 37° C., dose-dependent", "procedure": "Purified HSV-1 was incubated directly with media containing various concentrations of each Antrodia camphorata extracts for 1 hour at 37° C. The viral titers were then examined in oral epithelial cells (OC3) using the plaque assay. The results shown are the mean±SEM from at least three independent experiments. Statistical differences are shown by different lowercase letters (analysis of variance, Tukey, α=0.05).\nThe oral epithelial cell line (OC3) was used to determine the possible effects of Antrodia camphorata extracts on oral epithelial cells during HSV-1 infection. Cell monolayers were treated as illustrated in FIG. 4 (please also see details in the Materials and Methods section). Three experimental conditions, including no-treatment, pre-treatment and post-treatment were performed. Whether these Antrodia camphorata extracts have effects before or after viral infection were examined. The effects of Antrodia camphorata extracts on viral propagation (viral yields) in infected oral epithelial cells were examined. At 19-20 h post infection, viral yields in the supernatants were determined using the plaque assay. Viability of treated cells was also determined using the MTT assay for the mitochondrial dehydrogenase activity. Moreover, purified HSV-1 virions were directly treated with Antrodia camphorata extracts to examine whether Antrodia camphorata extracts exert anti-HSV-1 activity directly on virus particles before viral entry.\nOral epithelial cells (OC3 cells) were infected with HSV-1 at multiplicity of infection (MOI) of 5 or mock infected for 1 h at 37° C. for viral entry to occur. Unbound viruses were removed. Infected cells were then overlaid with appropriate media and incubated at 37° C. The Antrodia camphorata fruit body extracts used were A2 (Antrodia camphorata extracts), A3 (dehydrosulphurenic acid), A4 (antcin K), A5 (versisponic acid), and A6 (dehydroeburicoic acid). […]\nViral titers in the supernatants after infection were determined using the plaque assay. […] Plaques were observed and counted under an inverted microscope. […]"}, "[1]": {"tested_on": "HuS-E/2 immortalized human primary hepatocytes cells", "assay": "MTT cell viability, HuS-E/2 cells", "details": "48 h, 50 μg/ml"}, "[2]": {"details": "48 h, at 20 μg/ml and 50 μg/ml, percentage of non-drug-treated control"}}, "data": [{"molecule": "C=C(CC[C@@H](C)[C@H]1CC[C@H]2C3=C(C(=O)C[C@]12C)[C@@]1(C)CCC(O)[C@](C)(O)C1CC3O)C(C)C(=O)O", "note": "(stereo partly drawn) [A4, antcin K]", "values": [{"measurement": "HBV replication, the assembly or release of viral particles", "setting": "HBV", "value": "significantly inhibits"}, {"measurement": "HBV DNA repressed to", "setting": "HBV; 48 h, 50 μg/ml, percentage of non-drug-treated control", "value": 55, "unit": "%"}, {"measurement": "level of HBeAg in the culture supernatant, decreased to", "setting": "HBV; [2]", "value": "50-60%"}, {"measurement": "level of HBsAg in the culture supernatant, decreased to", "setting": "HBV; [2]", "value": "50-60%"}, {"measurement": "HBsAg protein levels, dose dependence", "setting": "HBV; FIG. 2A", "value": "marked dose-dependent reduction"}, {"measurement": "core protein levels, dose dependence", "setting": "HBV; FIG. 2B", "value": "marked dose-dependent reduction"}, {"measurement": "HBV DNA in particles, dose dependence", "setting": "HBV; FIG. 2C", "value": "marked dose-dependent reduction"}, {"measurement": "viral infectivity of treated HSV-1 virions", "setting": "HSV-1 virions", "value": "statistically significantly inhibited"}, {"measurement": "toxic effect (MTT cell viability)", "setting": "[1]", "value": "no toxic effect"}]}]}
